Reference: ChEMBL document CHEMBL1201862, “PubChem BioAssay data set” (2004)
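Results reflect a 48-hour exposure of cells in 96-well plates to compound at five concentrations. GI50 = concentration required for 50% inhibition of growth.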 The source made the active and inactive calls. Cut-off read from the data, not from the text of the source: active = GI50 up to about 1.1 µM and inactive = higher.

Key:
Test in all cases: inhibition of tumour cell growth, NCI panel, 48 h
[1] = tested on: SF-268
[2] = tested on: U-251
[3] = tested on: A549
[4] = tested on: UACC-62
[5] = tested on: HL-60
[6] = tested on: NCI-H23
[7] = tested on: SF-295
[8] = tested on: SNB-78
[9] = tested on: K562
[10] = tested on: EKVX
[11] = tested on: HCC 2998
[12] = tested on: OVCAR-8
[13] = tested on: KM12
[14] = tested on: NCI-H522
[15] = tested on: HOP-92
[16] = tested on: HOP-18
[17] = tested on: OVCAR-5
[18] = tested on: SK-OV-3
[19] = tested on: OVCAR-4
[20] = tested on: DLD-1
[21] = tested on: MOLT-4
[22] = tested on: CAKI-1
[23] = tested on: UACC-257
[24] = tested on: DMS-114
[25] = tested on: OVCAR-3
[26] = tested on: LOX IMVI
[27] = tested on: SW-620
[28] = tested on: IGROV-1
[29] = tested on: Malme-3M
[30] = tested on: SR
[31] = tested on: SNB-75
[32] = tested on: M14
[33] = tested on: XF498
[34] = tested on: UO-31
[35] = tested on: 786-0
[36] = tested on: SNB-19
[37] = tested on: CCRF-CEM
[38] = tested on: HCT-15
[39] = tested on: HOP-62
[40] = tested on: ACHN
[41] = tested on: SK-MEL-2
[42] = tested on: SF-539
[43] = tested on: RPMI-8226
[44] = tested on: NCI-H460
[45] = tested on: KM-20L2
[46] = tested on: HCT-116
[47] = tested on: LXFL 529
[48] = tested on: HT-29
[49] = tested on: SK-MEL-5
[50] = tested on: M19-MEL
[51] = tested on: RXF 393
[52] = tested on: TK-10
[53] = tested on: COLO 205
[54] = tested on: SN12C
[55] = tested on: DMS-273
[56] = tested on: SK-MEL-28
[57] = tested on: NCI-H226
[58] = tested on: A498
[59] = tested on: RXF 631

COC(=O)/C=C(C)/C=C/c1cc(C(C)=O)c(C)o1
GI50 [1]: > 100 µM (inactive) | GI50 [2]: > 100 µM (inactive) | GI50 [3]: 66.7 µM (inactive) | GI50 [4]: 82 µM (inactive) | GI50 [5]: > 100 µM (inactive) | GI50 [6]: > 100 µM (inactive) | GI50 [7]: > 100 µM (inactive) | GI50 [8]: > 100 µM (inactive) | GI50 [9]: 62.1 µM (inactive) | GI50 [10]: 51.9 µM (inactive) | GI50 [11]: > 100 µM (inactive) | GI50 [12]: > 100 µM (inactive) | GI50 [13]: > 100 µM (inactive) | GI50 [14]: > 100 µM (inactive) | GI50 [15]: 23.2 µM (inactive) | GI50 [16]: 46.9 µM (inactive) | GI50 [17]: 78.7 µM (inactive) | GI50 [18]: > 100 µM (inactive) | GI50 [19]: 94.2 µM (inactive) | GI50 [20]: 43.8 µM (inactive) | GI50 [21]: 62.5 µM (inactive) | GI50 [22]: > 100 µM (inactive) | GI50 [23]: > 100 µM (inactive) | GI50 [24]: 93.3 µM (inactive) | GI50 [25]: > 100 µM (inactive) | GI50 [26]: > 100 µM (inactive) | GI50 [27]: > 100 µM (inactive) | GI50 [28]: > 100 µM (inactive) | GI50 [29]: > 100 µM (inactive) | GI50 [30]: > 100 µM (inactive) | GI50 [31]: 68.4 µM (inactive) | GI50 [32]: > 100 µM (inactive) | GI50 [33]: > 100 µM (inactive) | GI50 [34]: 86.9 µM (inactive) | GI50 [35]: > 100 µM (inactive) | GI50 [36]: > 100 µM (inactive) | GI50 [37]: > 100 µM (inactive) | GI50 [38]: > 100 µM | GI50 [39]: > 100 µM (inactive) | GI50 [40]: > 100 µM (inactive) | GI50 [41]: > 100 µM (inactive) | GI50 [42]: > 100 µM (inactive) | GI50 [43]: 54.7 µM (inactive) | GI50 [44]: > 100 µM (inactive) | GI50 [45]: > 100 µM (inactive) | GI50 [46]: > 100 µM (inactive) | GI50 [47]: 93.1 µM (inactive) | GI50 [48]: > 100 µM (inactive)

CCOC(=O)C(NO)C(Sc1ccccc1)c1ccc(OC)cc1 (stereo unspecified)
GI50 [49]: 30.7 µM (inactive) | GI50 [1]: > 100 µM (inactive) | GI50 [2]: > 100 µM (inactive) | GI50 [3]: 38.6 µM (inactive) | GI50 [4]: 37.6 µM (inactive) | GI50 [6]: > 100 µM (inactive) | GI50 [7]: > 100 µM (inactive) | GI50 [50]: 69.2 µM (inactive) | GI50 [8]: > 100 µM (inactive) | GI50 [10]: > 100 µM (inactive) | GI50 [11]: > 100 µM (inactive) | GI50 [51]: 23.9 µM (inactive) | GI50 [12]: > 100 µM (inactive) | GI50 [13]: 78.5 µM (inactive) | GI50 [14]: 34.8 µM (inactive) | GI50 [15]: > 100 µM (inactive) | GI50 [16]: > 100 µM (inactive) | GI50 [17]: > 100 µM (inactive) | GI50 [18]: > 100 µM (inactive) | GI50 [52]: > 100 µM (inactive) | GI50 [20]: 72.9 µM (inactive) | GI50 [21]: 42.1 µM (inactive) | GI50 [23]: 65.9 µM (inactive) | GI50 [24]: 64.7 µM (inactive) | GI50 [25]: 91 µM (inactive) | GI50 [26]: > 100 µM (inactive) | GI50 [27]: > 100 µM (inactive) | GI50 [28]: > 100 µM (inactive) | GI50 [29]: > 100 µM (inactive) | GI50 [30]: > 100 µM (inactive) | GI50 [31]: 55.5 µM (inactive) | GI50 [32]: > 100 µM (inactive) | GI50 [33]: 31 µM (inactive) | GI50 [34]: 68.5 µM (inactive) | GI50 [35]: > 100 µM (inactive) | GI50 [36]: > 100 µM (inactive) | GI50 [38]: 68.9 µM | GI50 [39]: 88.3 µM (inactive) | GI50 [53]: 35.3 µM (inactive) | GI50 [40]: 71.3 µM (inactive) | GI50 [41]: > 100 µM (inactive) | GI50 [54]: > 100 µM (inactive) | GI50 [42]: > 100 µM (inactive) | GI50 [43]: 55.3 µM (inactive) | GI50 [55]: > 100 µM (inactive) | GI50 [44]: 44.4 µM (inactive) | GI50 [56]: > 100 µM (inactive) | GI50 [45]: > 100 µM (inactive) | GI50 [46]: 34.9 µM (inactive) | GI50 [47]: > 100 µM (inactive) | GI50 [48]: > 100 µM (inactive) | GI50 [57]: 81.8 µM (inactive)

Cc1ccc(C(O)(c2ccc(C)cc2)c2ccccn2)cc1
GI50 [49]: > 100 µM (inactive) | GI50 [1]: > 100 µM (inactive) | GI50 [2]: > 100 µM (inactive) | GI50 [3]: 64.6 µM (inactive) | GI50 [4]: > 100 µM (inactive) | GI50 [6]: 80.2 µM (inactive) | GI50 [7]: > 100 µM (inactive) | GI50 [50]: > 100 µM (inactive) | GI50 [8]: > 100 µM (inactive) | GI50 [9]: 71.6 µM (inactive) | GI50 [10]: 86.7 µM (inactive) | GI50 [11]: > 100 µM (inactive) | GI50 [12]: > 100 µM (inactive) | GI50 [13]: > 10 µM (inactive) | GI50 [16]: > 100 µM (inactive) | GI50 [17]: > 100 µM (inactive) | GI50 [58]: > 100 µM (inactive) | GI50 [18]: > 100 µM (inactive) | GI50 [52]: 62.1 µM (inactive) | GI50 [19]: > 100 µM (inactive) | GI50 [20]: > 100 µM (inactive) | GI50 [22]: > 100 µM (inactive) | GI50 [23]: > 100 µM (inactive) | GI50 [24]: > 100 µM (inactive) | GI50 [25]: > 100 µM (inactive) | GI50 [26]: > 100 µM (inactive) | GI50 [27]: > 100 µM (inactive) | GI50 [28]: > 100 µM (inactive) | GI50 [29]: > 100 µM (inactive) | GI50 [31]: 30.9 µM (inactive) | GI50 [32]: > 100 µM (inactive) | GI50 [34]: 38.3 µM (inactive) | GI50 [35]: > 100 µM (inactive) | GI50 [36]: > 100 µM (inactive) | GI50 [37]: 51.5 µM (inactive) | GI50 [38]: > 100 µM | GI50 [39]: > 100 µM (inactive) | GI50 [53]: > 100 µM (inactive) | GI50 [40]: > 100 µM (inactive) | GI50 [41]: > 100 µM (inactive) | GI50 [54]: > 100 µM (inactive) | GI50 [42]: > 100 µM (inactive) | GI50 [43]: > 100 µM (inactive) | GI50 [55]: > 100 µM (inactive) | GI50 [44]: > 100 µM (inactive) | GI50 [56]: > 100 µM (inactive) | GI50 [45]: > 100 µM (inactive) | GI50 [46]: 68.9 µM (inactive) | GI50 [48]: 80.7 µM (inactive) | GI50 [57]: > 100 µM (inactive) | GI50 [59]: > 100 µM (inactive)
